Consider one compound from publication PMC6637423 (Organic & biomolecular chemistry, 2019).

The subject of data set [1] is C57BL/6J mice. The experiment in a line: 55°C warm-water tail-withdrawal assay after i.c.v. administration. The format is in vivo, mouse. Particulars: 1 nmol i.c.v., summed over 90 min.
Data set [2] relates to C57BL/6J mice. Kind of data set: 55°C warm-water tail-withdrawal assay after oral. The data set is classed as in vivo, mouse. The following applies: morphine 5 mg/kg, p.o.
Data set [3] deals with C57BL/6J mice. Kind of data set: Respiration rate, Oxymax/CLAMS assay. Particulars: morphine 30 mg/kg, i.p., positive control.

With `CN1CC[C@]23c4c5ccc(O)c4O[C@H]2[C@@H](O)C=C[C@H]3[C@H]1C5` [Morphine], the “Screening: summed tail-withdrawal latency versus vehicle” value in the data set on C57BL/6J mice [1] was “withdrawal latencies equivalent to vehicle treated animals”. The “Antinociception after oral administration versus vehicle” value in the data set with C57BL/6J mice [2] is recorded as “significantly higher antinociceptive effects compared to vehicle treated animals”. Moreover, the “Respiratory effect versus vehicle” value in the data set with C57BL/6J mice [3] is listed as “suppressed respiration up to an hour”.
